Results: EP1818052A1 (Acacia Pharma Limited, priority 2004, dated 2006)
Values joined by “and” are separate entries in the source; they are usually repeats but may differ in a detail not shown here. Equal entries are not always repeated. Where two headings read alike, the source gives them in different places.

Key:
isolated EDL muscles [1] = experiment: Proteolytic rate (tyrosine release) in incubated isolated EDL muscles; type: cell-based, rats; settings: for Proteolytic rate: EDL muscles from control rats, 10^-4 M added to incubation medium, cycloheximide 0.5 mM
Experimental: (§1) The dissection and isolation of the EDL muscles was carried out under ketamine/xylazine mixture anesthesia. […] Such muscles are able to maintain normal ATP and phosphocreatine concentrations during a 3 hours incubation period. The muscles were incubated in a shaking-thermostatized water bath at 35 °C for 3 hours in 2 ml of Krebs-Henseleit physiological saline pH 7.4, containing 5 mM glucose and 20 mM HEPES. After the addition of the muscles to the vials, the incubation started at a shaking rate of 45 cycles/min.
(§2) Total protein degradation by the isolated muscles was calculated as the rate of tyrosine released in the last two hours of incubation into the medium in the presence of 0.5 mM cycloheximide in order to block the reincorporation of tyrosine into tissue protein. Tyrosine was measured fluorimetrically. Statistical analysis of the data was performed by means of the Student's t test.

[2] = tested on: rats bearing Yoshida AH-130 ascites hepatoma; settings: rat, in vivo
[3] = tested on: rats bearing Yoshida AH-130 ascites hepatoma; settings: rat, in vivo; remark: listed apart in the source
isolated EDL muscles [4] = tested on: isolated EDL muscles
Experimental: as §1, §2
Rates were measured in presence of cycloheximide (0.5 mM) and are expressed as nmols/g and 2 hours. […]

isolated EDL muscles [5] = experiment: Protein synthesis rate in incubated isolated EDL muscles; type: cell-based, rats; settings: for Rate of protein synthesis: EDL muscles from control rats, 10^-4 M added to incubation medium; for increase of the rate of protein synthesis: incubated rat EDL muscles, 10^-4 M in medium
Experimental: as §1
Synthetic rates are expressed as nmols of [^14C]phenylalanine incorporated per g and 30 min. […]

[6] = tested on: rats bearing Yoshida AH-130 ascites hepatoma; settings: rat, in vivo; remark: listed apart in the source
[7] = tested on: tibialis muscles previously injected with bupivacain; experiment: Muscular damage by bupivacain: tibialis muscle weight; type: in vivo; settings: rats injected with bupivacain (0.5%) only (C+B)
Excerpt: Muscular regeneration is a process that implies satellite cells activation, muscle precursors cells that lie adjacent to the skeletal muscle fibers. The muscle was damaged by injecting bupivacain intramuscularly (0.5%). This compound, after muscle damage, stimulates muscular regeneration.
Muscle weights are expressed as mg/100 g of initial body weight. Results are mean ± SEM for the number of animals indicated in parentheses.

Pax-7 and myogenin = experiment: Real time PCR of satellite cell activation markers in tibialis muscle after bupivacain damage; type: in vivo, rats; settings: bupivacain (0.5%) only (C + B)
Excerpt: PAx-7 and myogenin. Results are mean ± SEM for the number of animals indicated in parentheses.

COc1ccc(C[C@H](C)NC[C@@H](O)c2ccc(O)c(NC=O)c2)cc1 (racemic) [formoterol]
Proteolytic rate (isolated EDL muscles [1]): 180 ± 5.6 (8) nmols/g and 2 hours
decrease of the rate of protein degradation (release of tyrosine) (isolated EDL muscles [1]; isolated EDL muscles, 10^-4 M in medium): 20%
Tumor cell number [2]: not significantly affected
adipose tissues weight: brown (interscapular) [2]: 278 ± 21 mg/100 g of initial body weight and 177 ± 11 † *** mg/100 g of initial body weight
adipose tissues weight: white (dorsal) [2]: 759 ± 126 mg/100 g of initial body weight and 461 ± 49 mg/100 g of initial body weight
brown adipose tissue weight [2]: increase
carcass weight [2]: 113 ± 11 g/100 g of initial body weight and 81 ± 1 g/100 g of initial body weight
increase in EDL weight [2]: 32% and 16%
increase in cardiac muscle weight [2]: 21%
increase in heart weight [2]: 11%
muscle weight: EDL [2]: 70 ± 3 mg/100 g of initial body weight and 50 ± 1 ††† *** mg/100 g of initial body weight
muscle weight: gastrocnemius [2]: 859 ± 38 mg/100 g of initial body weight and 639 ± 16 mg/100 g of initial body weight
muscle weight: heart [2]: 520 ± 15 mg/100 g of initial body weight and 426 ± 17 † ** mg/100 g of initial body weight
muscle weight: soleus [2]: 55 ± 4 mg/100 g of initial body weight and 40 ± 1 mg/100 g of initial body weight
muscle weight: tibialis [2]: 275 ± 12 mg/100 g of initial body weight and 204 ± 4 †† *** mg/100 g of initial body weight
trophic action on soleus [2]: not significantly affected
tumor cell content [2]: 3403 ± 88 (5) millions of cells
white adipose tissue mass [2]: tendency towards a decrease
carcass weigth [3]: 106 ± 1 g/100 g of initial body weight and 97 ± 1 g/100 g of initial body weight
effect on cancer cachexia [3]: effective at low doses
muscle weigths: EDL [3]: 52 ± 1 t mg/100 g of initial body weight and 51 ± 2 t mg/100 g of initial body weight
muscle weigths: gastrocnemius [3]: 629 ± 9 mg/100 g of initial body weight and 598 ± 16 mg/100 g of initial body weight
muscle weigths: heart [3]: 431 ± 5 mg/100 g of initial body weight and 417 ± 18 mg/100 g of initial body weight
muscle weigths: soleus [3]: 43 ± 2 mg/100 g of initial body weight and 43 ± 1 mg/100 g of initial body weight
muscle weigths: tibialis [3]: 210 ± 5 t mg/100 g of initial body weight and 199 ± 4 t mg/100 g of initial body weight
Proteolytic rate (isolated EDL muscles [4]; EDL muscles from rats given formoterol 2 mg/kg bw for six consecutive days, cycloheximide 0.5 mM): 159 ± 5 (8) nmols/g and 2 hours
decrease of proteolytic rate (isolated EDL muscles [4]; EDL muscles from rats pre-treated for six consecutive days): 12%
Rate of protein synthesis (isolated EDL muscles [5]): 9.36 ± 0.3 (7) nmols of [14C]phenylalanine in
increase of the rate of protein synthesis (isolated EDL muscles [5]): 20%
efficacy against cachexia [6]: effective against cachexia
muscle weights: soleus [6]: 37 ± 1 mg/100 g of initial body weight and 33 ± 2 mg/100 g of initial body weight and 37 ± 2 mg/100 g of initial body weight

CC(C)(C)NCC(O)c1cc(Cl)c(N)c(Cl)c1 (stereo not shown) [clenbuterol]
Proteolytic rate (isolated EDL muscles [1]): 176 ± 4.4 (8) nmols/g and 2 hours
Rate of protein synthesis (isolated EDL muscles [5]): 9.36 ± 0.5 (9) nmols of [14C]phenylalanine in
increase of the rate of protein synthesis (isolated EDL muscles [5]): 20%

CCCCN1CCCCC1C(=O)Nc1c(C)cccc1C (stereo not shown) [B, bupivacain]
weight of tibialis muscles [7]: 265 ± 4 mg/100 g of initial body weight
Myogenin gene expression (Pax-7 and myogenin): 142 ± 77
Pax-7 gene expression (Pax-7 and myogenin): 105 ± 11
